# From ChEMBL document CHEMBL5724914, “Linking interpersonal differences in gut microbiota composition and drug biotransformation activity” (2024)
# Assay: (§1) The drug is tested on Z-021 corresponding to metagenome with ENA study accession number: PRJEB37062 and ENA sample accession number: ERS12561820 for biotransformation under anaerobic condition. The drug concentrations were measured over 9 timepoints collected between 0 and 24 hours of incubation by liquid-chromatography-coupled mass spectrometry (LC–MS)
# Conditions: 2 µM
# Further: call rule not given here.
row,Compound,Bacterial Biotransformation
1,C[N+]12CCC(CC1)C(OC(=O)C(O)(c1ccccc1)c1ccccc1)C2.[Br-] (stereo not given) [CLIDINIUM BROMIDE],Compound NOT metabolized
2,Clc1cccc(Cl)c1N=C1NCCN1 [CLONIDINE],Compound NOT metabolized

# Conditions: human gut metagenome, 24 h, 2 µM
row,Compound,Bacterial Biotransformation
1,C[N+]12CCC(CC1)C(OC(=O)C(O)(c1ccccc1)c1ccccc1)C2.[Br-] (stereo not given) [CLIDINIUM BROMIDE],Compound NOT metabolized
2,Clc1cccc(Cl)c1N=C1NCCN1 [CLONIDINE],Compound NOT metabolized

# Conditions: human gut metagenome, 24 h, 2 µM
# Remark: another data set of the same source
row,Compound,Bacterial Biotransformation
1,C[N+]12CCC(CC1)C(OC(=O)C(O)(c1ccccc1)c1ccccc1)C2.[Br-] (stereo not given) [CLIDINIUM BROMIDE],Compound NOT metabolized
2,Clc1cccc(Cl)c1N=C1NCCN1 [CLONIDINE],Compound metabolized

# Assay: (§2) The drug is tested on WLS-090 corresponding to human gut metagenome with ENA study accession number: PRJEB37062 and ENA sample accession number: ERS12561753 for biotransformation under anaerobic condition. The drug concentrations were measured over 9 timepoints collected between 0 and 24 hours of incubation by liquid-chromatography-coupled mass spectrometry (LC–MS)
# Conditions: 2 µM
row,Compound,Bacterial Biotransformation
1,C[N+]12CCC(CC1)C(OC(=O)C(O)(c1ccccc1)c1ccccc1)C2.[Br-] (stereo not given) [CLIDINIUM BROMIDE],Compound metabolized
2,Clc1cccc(Cl)c1N=C1NCCN1 [CLONIDINE],Compound metabolized

# Assay: as §1, with “Z-005” for “Z-021”, “ERS12561805” for “ERS12561820”
# Conditions: 2 µM
row,Compound,Bacterial Biotransformation
1,C[N+]12CCC(CC1)C(OC(=O)C(O)(c1ccccc1)c1ccccc1)C2.[Br-] (stereo not given) [CLIDINIUM BROMIDE],Compound NOT metabolized
2,Clc1cccc(Cl)c1N=C1NCCN1 [CLONIDINE],Compound NOT metabolized

# Conditions: human gut metagenome, 24 h, 2 µM
# Remark: another data set of the same source
row,Compound,Bacterial Biotransformation
1,C[N+]12CCC(CC1)C(OC(=O)C(O)(c1ccccc1)c1ccccc1)C2.[Br-] (stereo not given) [CLIDINIUM BROMIDE],Compound metabolized
2,Clc1cccc(Cl)c1N=C1NCCN1 [CLONIDINE],Compound NOT metabolized

# Assay: as §2, with “WLS-082” for “WLS-090”, “ERS12561751” for “ERS12561753”
# Conditions: 2 µM
row,Compound,Bacterial Biotransformation
1,C[N+]12CCC(CC1)C(OC(=O)C(O)(c1ccccc1)c1ccccc1)C2.[Br-] (stereo not given) [CLIDINIUM BROMIDE],Compound NOT metabolized
2,Clc1cccc(Cl)c1N=C1NCCN1 [CLONIDINE],Compound NOT metabolized

# Assay: as §2, with “Z-014” for “WLS-090”, “rat” for “human”, “ERS12561814” for “ERS12561753”
# Conditions: 2 µM
row,Compound,Bacterial Biotransformation
1,C[N+]12CCC(CC1)C(OC(=O)C(O)(c1ccccc1)c1ccccc1)C2.[Br-] (stereo not given) [CLIDINIUM BROMIDE],Compound NOT metabolized
2,Clc1cccc(Cl)c1N=C1NCCN1 [CLONIDINE],Compound NOT metabolized

# Assay: as §2, with “WLS-086” for “WLS-090”, “ERS12561752” for “ERS12561753”
# Conditions: 2 µM
row,Compound,Bacterial Biotransformation
1,C[N+]12CCC(CC1)C(OC(=O)C(O)(c1ccccc1)c1ccccc1)C2.[Br-] (stereo not given) [CLIDINIUM BROMIDE],Compound metabolized
2,Clc1cccc(Cl)c1N=C1NCCN1 [CLONIDINE],Compound metabolized

# Conditions: human gut metagenome, 24 h, 2 µM
# Remark: another data set of the same source
row,Compound,Bacterial Biotransformation
1,C[N+]12CCC(CC1)C(OC(=O)C(O)(c1ccccc1)c1ccccc1)C2.[Br-] (stereo not given) [CLIDINIUM BROMIDE],Compound NOT metabolized
2,Clc1cccc(Cl)c1N=C1NCCN1 [CLONIDINE],Compound metabolized

# Assay: as §2, with “WLS-039” for “WLS-090”, “ERS12561746” for “ERS12561753”
# Conditions: 2 µM
row,Compound,Bacterial Biotransformation
1,C[N+]12CCC(CC1)C(OC(=O)C(O)(c1ccccc1)c1ccccc1)C2.[Br-] (stereo not given) [CLIDINIUM BROMIDE],Compound metabolized
2,Clc1cccc(Cl)c1N=C1NCCN1 [CLONIDINE],Compound NOT metabolized

# Assay: as §1, with “Z-010” for “Z-021”, “ERS12561810” for “ERS12561820”
# Conditions: 2 µM
row,Compound,Bacterial Biotransformation
1,C[N+]12CCC(CC1)C(OC(=O)C(O)(c1ccccc1)c1ccccc1)C2.[Br-] (stereo not given) [CLIDINIUM BROMIDE],Compound metabolized
2,Clc1cccc(Cl)c1N=C1NCCN1 [CLONIDINE],Compound metabolized

# Assay: as §2, with “Z-017” for “WLS-090”, “mouse” for “human”, “ERS12561816” for “ERS12561753”
# Conditions: 2 µM
row,Compound,Bacterial Biotransformation
1,C[N+]12CCC(CC1)C(OC(=O)C(O)(c1ccccc1)c1ccccc1)C2.[Br-] (stereo not given) [CLIDINIUM BROMIDE],Compound NOT metabolized
2,Clc1cccc(Cl)c1N=C1NCCN1 [CLONIDINE],Compound NOT metabolized

# Assay: as §2, with “Z-019” for “WLS-090”, “rat” for “human”, “ERS12561818” for “ERS12561753”
# Conditions: 2 µM
row,Compound,Bacterial Biotransformation
1,C[N+]12CCC(CC1)C(OC(=O)C(O)(c1ccccc1)c1ccccc1)C2.[Br-] (stereo not given) [CLIDINIUM BROMIDE],Compound NOT metabolized
2,Clc1cccc(Cl)c1N=C1NCCN1 [CLONIDINE],Compound NOT metabolized

# Assay: as §2, with “Z-018” for “WLS-090”, “pig” for “human”, “ERS12561817” for “ERS12561753”
# Conditions: 2 µM
row,Compound,Bacterial Biotransformation
1,C[N+]12CCC(CC1)C(OC(=O)C(O)(c1ccccc1)c1ccccc1)C2.[Br-] (stereo not given) [CLIDINIUM BROMIDE],Compound metabolized
2,Clc1cccc(Cl)c1N=C1NCCN1 [CLONIDINE],Compound metabolized

# Conditions: human gut metagenome, 24 h, 2 µM
# Remark: another data set of the same source
row,Compound,Bacterial Biotransformation
1,C[N+]12CCC(CC1)C(OC(=O)C(O)(c1ccccc1)c1ccccc1)C2.[Br-] (stereo not given) [CLIDINIUM BROMIDE],Compound NOT metabolized
2,Clc1cccc(Cl)c1N=C1NCCN1 [CLONIDINE],Compound NOT metabolized

# Assay: as §2, with “WLS-170” for “WLS-090”, “ERS12561762” for “ERS12561753”
# Conditions: 2 µM
row,Compound,Bacterial Biotransformation
1,C[N+]12CCC(CC1)C(OC(=O)C(O)(c1ccccc1)c1ccccc1)C2.[Br-] (stereo not given) [CLIDINIUM BROMIDE],Compound metabolized
2,Clc1cccc(Cl)c1N=C1NCCN1 [CLONIDINE],Compound metabolized

# Assay: as §2, with “Z-001” for “WLS-090”, “mouse” for “human”, “ERS12561801” for “ERS12561753”
# Conditions: 2 µM
row,Compound,Bacterial Biotransformation
1,C[N+]12CCC(CC1)C(OC(=O)C(O)(c1ccccc1)c1ccccc1)C2.[Br-] (stereo not given) [CLIDINIUM BROMIDE],Compound metabolized
2,Clc1cccc(Cl)c1N=C1NCCN1 [CLONIDINE],Compound metabolized

# Assay: as §2, with “WLS-027” for “WLS-090”, “ERS12561744” for “ERS12561753”
# Conditions: 2 µM
row,Compound,Bacterial Biotransformation
1,C[N+]12CCC(CC1)C(OC(=O)C(O)(c1ccccc1)c1ccccc1)C2.[Br-] (stereo not given) [CLIDINIUM BROMIDE],Compound NOT metabolized
2,Clc1cccc(Cl)c1N=C1NCCN1 [CLONIDINE],Compound NOT metabolized

# Conditions: human gut metagenome, 24 h, 2 µM
# Remark: another data set of the same source
row,Compound,Bacterial Biotransformation
1,C[N+]12CCC(CC1)C(OC(=O)C(O)(c1ccccc1)c1ccccc1)C2.[Br-] (stereo not given) [CLIDINIUM BROMIDE],Compound NOT metabolized
2,Clc1cccc(Cl)c1N=C1NCCN1 [CLONIDINE],Compound metabolized
